# In the supplement of paper PMC10307832:
# Assays:
# Assay in all cases: relative viability (nuclei count vs DMSO), 5 days (fraction); higher = more cells survive
# Tanzisertib + Vorinostat = compound: O[C@H]1CC[C@H](Nc2ncc3nc(Nc4c(F)cc(F)cc4F)n([C@H]4CCOC4)c3n2)CC1 [Tanzisertib] + O=C(CCCCCCC(=O)Nc1ccccc1)NO [Vorinostat] (partner 1 µM)
# Procedure, shortened: (§1)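 Relative viability is defined as nuclei in treated wells over nuclei in vehicle wells. Duplicate plates were run and medians reported. Lung cancer cell lines in 1536-well plates were dosed by pin tool one day after seeding, with one drug or with a fixed anchor-drug dose plus five library-drug doses (not always all listed) in √10 steps, and nuclei were counted after 5 days.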
# [1] = compound: C[C@@H](N)c1ccc(C(=O)Nc2ccnc3[nH]ccc23)cc1 + C[C@@H](Oc1cc(-c2cnn(C3CCNCC3)c2)cnc1N)c1c(Cl)ccc(F)c1Cl [Crizotinib] (partner 1 µM)
# Procedure, shortened: as §1
# [2] = compound: C[C@@H](N)c1ccc(C(=O)Nc2ccnc3[nH]ccc23)cc1 + O=C(CCCCCCC(=O)Nc1ccccc1)NO [Vorinostat] (partner 1 µM)
# Procedure, shortened: as §1
# [3] = compound: C[C@@H](N)c1ccc(C(=O)Nc2ccnc3[nH]ccc23)cc1 + Nc1ncn([C@H]2C[C@H](O)[C@@H](CO)O2)c(=O)n1 [Decitabine] (partner 2 µM)
# Procedure, shortened: as §1
Cell Line,relative viability (Tanzisertib + Vorinostat; first compound 0.08 µM),relative viability (Tanzisertib + Vorinostat; first compound 0.253 µM),relative viability (Tanzisertib + Vorinostat; first compound 0.8 µM),relative viability (Tanzisertib + Vorinostat; first compound 2.53 µM),relative viability (Tanzisertib + Vorinostat; first compound 8 µM),relative viability ([1]; first compound 0.04 µM),relative viability ([1]; first compound 0.1265 µM),relative viability ([1]; first compound 0.4 µM),relative viability ([1]; first compound 1.265 µM),relative viability ([1]; first compound 4 µM),relative viability ([2]; first compound 0.04 µM),relative viability ([2]; first compound 0.1265 µM),relative viability ([2]; first compound 0.4 µM),relative viability ([2]; first compound 1.265 µM),relative viability ([2]; first compound 4 µM),relative viability ([3]; first compound 0.04 µM),relative viability ([3]; first compound 0.1265 µM),relative viability ([3]; first compound 0.4 µM),relative viability ([3]; first compound 1.265 µM),relative viability ([3]; first compound 4 µM)
NCI-H358,0.764,0.791,0.75,0.65,0.56,0.744,0.543,0.676,0.513,0.633,0.692,0.781,0.784,0.642,0.614,0.232,0.222,0.191,0.19,0.207
NCI-H1734,0.966,0.781,0.756,0.906,0.81,0.669,0.719,0.653,–,0.575,0.701,0.791,0.823,0.576,0.806,0.477,0.506,0.53,0.52,0.462
A-427,0.897,0.833,0.874,0.884,0.77,0.875,0.882,0.959,–,0.894,0.77,0.851,0.81,0.746,0.772,0.499,0.564,0.549,0.517,0.545
RERF-LC-KJ,0.779,0.712,0.743,0.573,0.56,0.808,0.893,0.788,0.858,0.684,0.737,0.736,0.838,0.652,0.74,0.762,0.764,0.75,0.806,0.634
NCI-H727,1.18,1.26,1.25,1.04,1.12,1.04,1,1.21,1.19,0.842,1.6,1.22,1.52,1.57,1.49,1,1.03,0.942,0.764,0.908
LCLC-97TM1,0.862,0.749,0.638,0.86,0.169,0.32,0.322,0.463,0.961,0.638,0.835,0.374,0.69,0.0878,0.779,0.254,0.263,0.249,0.218,0.304
BEN,0.593,0.583,0.613,0.588,0.611,0.952,0.828,0.918,1.09,0.675,0.592,0.573,0.589,0.585,0.587,0.53,0.732,0.822,0.757,0.568
NCI-H2023,0.826,0.502,0.803,0.555,0.625,0.738,0.596,0.733,0.741,0.544,0.645,0.621,0.863,–,0.819,0.252,0.243,0.245,0.222,0.159
LC-2-ad,0.731,0.69,0.702,0.715,0.493,0.43,0.486,0.501,0.438,0.409,0.497,0.736,0.713,0.476,0.369,0.935,0.775,0.827,0.775,0.563
ABC-1,1.22,1.58,1.15,1.1,0.786,1.47,1.19,1.4,1.6,0.857,1.23,1.11,1.01,0.998,0.941,1.2,0.895,1.13,1.46,1.46
NCI-H647,0.486,0.569,0.549,0.661,1.1,1.09,0.98,1.02,0.882,0.692,0.472,0.623,0.551,0.613,0.463,0.314,0.324,0.419,0.521,0.335
NCI-H1755,0.756,0.791,0.828,0.624,0.79,0.808,0.822,0.813,0.795,0.608,0.672,0.737,0.75,0.811,0.826,0.728,0.728,0.712,0.76,0.684
EPLC-272H,0.515,0.35,0.487,0.483,0.358,0.922,0.891,0.957,–,0.61,0.548,0.567,0.497,0.352,0.351,0.461,0.41,0.481,–,0.492
NCI-H1437,0.876,0.896,0.88,0.895,0.97,0.915,0.851,0.943,1.01,0.792,0.882,0.874,0.991,1.02,1.03,0.526,0.572,0.541,0.602,0.591
EKVX,0.711,0.691,0.852,0.741,0.676,0.979,1.03,1.04,1.05,0.963,0.672,0.672,0.83,0.44,0.517,0.385,0.331,0.358,0.329,0.385
NCI-H1651,0.575,0.603,0.513,0.517,0.549,0.921,0.822,0.916,0.898,0.837,0.603,0.526,0.647,0.586,0.561,0.648,0.619,0.668,0.661,0.656
